Measured values from patent US12559509B1, “Citrate coordination complex of an orally-delivered beta-lactamase inhibitor and uses thereof” (priority 2023, dated 2026).
Where a name gives a salt, the structure may show the parent alone.

Tests used:
[1] = Chemical stability of drug substance controls and binary blend, HPLC purity; assay type: physicochemical; conditions: for degradation (in words): controls and binary blend, 25° C. and 40° C., through 12 weeks
[2] = Excipient compatibility at 50° C., HPLC purity; assay type: physicochemical; conditions: for chemical stability in the presence of the excipients (in words): accelerated data
Procedure: The compatibility of the drug substances with select functional excipients was confirmed by comparing the assay and purity of samples stored at 50° C. for 5 weeks to the drug substance control samples. The excipients tested included: microcrystalline cellulose (binder); magnesium stearate (lubricant); sodium starch glycolate (disintegrant); and colloidal silica (glidant). […] The samples were transferred to a 3-dram glass vial with a tight-fitting cap and placed in a 50° C. oven.

[3] = Dissolution testing (Apparatus II method) of capsule prototypes; assay type: physicochemical; conditions: FDC capsule with ceftibuten dihydrate, 900 mL pH 6.8 50 mM sodium bicarbonate buffer, 75 RPM paddle
Procedure: In some embodiments, the citrate coordination complex allows for the development of a dry powder, immediate release formulation as compared to other forms, such as the ethanolate, which could not be formulated directly as an immediate release formulation. […] Dissolution testing (Apparatus II method) was performed using 900 mL of pH 6.8 50 mM sodium bicarbonate buffer solution and a 75 RPM paddle speed.

[4] = Dynamic Vapor Sorption (DVS) analysis; assay type: physicochemical; conditions: for solid form after DVS cycle, by XRPD: 0% RH to 98% RH and back to 0% RH; for weight gain: above 85% RH (up to 98% RH); for weight gain with increasing RH: between 0% RH and 85% RH
Procedure: Moisture sorption/desorption data were collected on a DVS-intrinsic vapor sorption analyzer (Surface Measurement Systems NA, Allentown, PA, USA) and operated with DVS-intrinsic control software (Version 1.0.5.1). Samples were not dried prior to analysis. Sorption and desorption data were collected over a range from 5% to 98% relative humidity (RH) via 10% RH increments under a nitrogen purge. The equilibrium criterion used for analysis was less than 0.005% weight change in 10 min with a maximum equilibration time of 3 h.
The DVS isotherm of Form B is qualitatively similar to that of Form A. Form B lost 0.1 wt % upon equilibration at ˜0% RH.

[5] = monkeys, reported; cited from earlier work
[6] = drug substance control, 25° C. Storage, 0 weeks
[7] = drug substance control, 25° C. Storage, 5 weeks
[8] = drug substance control, 25° C. Storage, 8 weeks
[9] = drug substance control, 25° C. Storage, 12 weeks
[10] = drug substance control, 40° C. Storage, 0 weeks
[11] = drug substance control, 40° C. Storage, 5 weeks
[12] = drug substance control, 40° C. Storage, 8 weeks
[13] = drug substance control, 40° C. Storage, 12 weeks
[14] = in binary Blend, 25° C. Storage, 0 weeks
[15] = in binary Blend, 25° C. Storage, 5 weeks
[16] = in binary Blend, 25° C. Storage, 8 weeks
[17] = in binary Blend, 25° C. Storage, 12 weeks
[18] = in binary Blend, 40° C. Storage, 0 weeks
[19] = in binary Blend, 40° C. Storage, 8 weeks
[20] = in binary Blend, 40° C. Storage, 12 weeks

CCC(=O)N[C@@H](Cc1cccc(C(=O)OCOC(=O)C(CC)CC)c1O)B1OC(=O)C(CC(=O)O)(CC(=O)O)O1 [Compound 1 citrate coordination complex, (R)-2,2′-(2-(2-(3-((((2-ethylbutanoyl)oxy)methoxy)carbonyl)-2-hydroxyphenyl)-1-propionamidoethyl)-5-oxo-1,3,2-dioxaborolane-4,4-diyl)diacetic acid]
degradation (in words) [1]: no degradation
HPLC purity (% peak area) [1, 6]: 100.0%
HPLC purity (% peak area) [1, 7]: 100.0%
HPLC purity (% peak area) [1, 8]: 100.0%
HPLC purity (% peak area) [1, 9]: 100.0%
HPLC purity (% peak area) [1, 10]: 100.0%
HPLC purity (% peak area) [1, 11]: 100.0%
HPLC purity (% peak area) [1, 12]: 100.0%
HPLC purity (% peak area) [1, 13]: 100.0%
HPLC purity (% peak area) [1, 14]: 100.0%
HPLC purity (% peak area) [1, 15]: 100.0%
HPLC purity (% peak area) [1, 16]: 100.0%
HPLC purity (% peak area) [1, 17]: 100.0%
HPLC purity (% peak area) [1, 18]: 100.0%
HPLC purity (% peak area) ([1]; in binary Blend, 40° C. Storage, 5 weeks): 100.0%
HPLC purity (% peak area) [1, 19]: 100.0%
HPLC purity (% peak area) [1, 20]: 100.0%
HPLC Purity (Peak Area %) Compound 1 ([2]; 2 weeks): 100.0%
HPLC Purity (Peak Area %) Compound 1 ([2]; 5 weeks): 100.0%
chemical stability in the presence of the excipients (in words) [2]: comparable to the stability for the drug substance controls
release of the drug substance ([3]; by 10 minutes): 100%

CCC(=O)N[C@@H](Cc1cccc(C(=O)OCOC(=O)C(CC)CC)c1O)B(O)O.O=C(O)CC(O)(CC(=O)O)C(=O)O [(R)-(2-(3-((((2-ethylbutanoyl)oxy)methoxy)carbonyl)-2-hydroxyphenyl)-1-propionamidoethyl)boronic acid citrate]
solid form after DVS cycle, by XRPD [4]: XRPD of the sample matched that of the material before DVS analysis
Change In Mass (%)-ref, Desorption ([4]; Target RH 0.0 %): −0.17%
Change In Mass (%)-ref, Sorption ([4]; Target RH 0.0 %): −0.07%
Change In Mass (%)-ref, Desorption ([4]; Target RH 5.0 %): −0.13%
Change In Mass (%)-ref, Hysteresis ([4]; Target RH 5.0 %): −0.07%
Change In Mass (%)-ref, Sorption ([4]; Target RH 5.0 %): −0.05%
Change In Mass (%)-ref, Desorption ([4]; Target RH 15.0 %): −0.05%
Change In Mass (%)-ref, Hysteresis ([4]; Target RH 15.0 %): −0.08%
Change In Mass (%)-ref, Sorption ([4]; Target RH 15.0 %): 0.04%
Change In Mass (%)-ref, Desorption ([4]; Target RH 25.0 %): 0.06%
Change In Mass (%)-ref, Hysteresis ([4]; Target RH 25.0 %): −0.07%
Change In Mass (%)-ref, Sorption ([4]; Target RH 25.0 %): 0.13%
Change In Mass (%)-ref, Desorption ([4]; Target RH 35.0 %): 0.13%
Change In Mass (%)-ref, Hysteresis ([4]; Target RH 35.0 %): −0.04%
Change In Mass (%)-ref, Sorption ([4]; Target RH 35.0 %): 0.17%
Change In Mass (%)-ref, Desorption ([4]; Target RH 45.0 %): 0.25%
Change In Mass (%)-ref, Hysteresis ([4]; Target RH 45.0 %): −0.06%
Change In Mass (%)-ref, Sorption ([4]; Target RH 45.0 %): 0.31%
Change In Mass (%)-ref, Desorption ([4]; Target RH 55.0 %): 0.43%
Change In Mass (%)-ref, Hysteresis ([4]; Target RH 55.0 %): 0.02%
Change In Mass (%)-ref, Sorption ([4]; Target RH 55.0 %): 0.41%
Change In Mass (%)-ref, Desorption ([4]; Target RH 65.0 %): 0.56%
Change In Mass (%)-ref, Hysteresis ([4]; Target RH 65.0 %): 0.03%
Change In Mass (%)-ref, Sorption ([4]; Target RH 65.0 %): 0.53%
Change In Mass (%)-ref, Desorption ([4]; Target RH 85.0 %): 1.11%
Change In Mass (%)-ref, Hysteresis ([4]; Target RH 85.0 %): 0.13%
Change In Mass (%)-ref, Sorption ([4]; Target RH 85.0 %): 0.98%
Change In Mass (%)-ref, Desorption ([4]; Target RH 95.0 %): 11.32%
Change In Mass (%)-ref, Hysteresis ([4]; Target RH 95.0 %): 2.85%
Change In Mass (%)-ref, Sorption ([4]; Target RH 95.0 %): 8.47%
Change In Mass (%)-ref, Desorption ([4]; Target RH 98.0 %): 11.18%
Change In Mass (%)-ref, Sorption ([4]; Target RH 98.0 %): 11.18%
Change In Mass (%)-ref, Desorption ([4]; Target RH […]): 0.79%
Change In Mass (%)-ref, Hysteresis ([4]; Target RH […]): 0.12%
Change In Mass (%)-ref, Sorption ([4]; Target RH […]): 0.66%
weight gain [4]: 11.2%
weight lost upon equilibration ([4]; at ˜0% RH): 0.1 wt %
weight gain with increasing RH [4]: ~1.0 wt %

CCOB1Oc2c(cccc2C(=O)OCOC(=O)C(CC)CC)C[C@@H]1NC(=O)CC [Compound 1 Ethanolate, ((2-ethylbutanoyl)oxy)methyl (R)-2-ethoxy-3-propionamido-3,4-dihydro-2H-benzo[e][1,2]oxaborinine-8-carboxylate]
release of the drug substance ([3]; at 60 minutes): < 40%

CCC(=O)N[C@@H](Cc1cccc(C(=O)OCOC(=O)C(CC)CC)c1O)B1OC(=O)C(CC(=O)O)(CC(=O)O)O1 [(R)-(2-(3-((((2-ethylbutanoyl)oxy)methoxy)carbonyl)-2-hydroxyphenyl)-1-propionamidoethyl)boronic acid citrate]
solid form after DVS cycle, by XRPD [4]: remained crystalline, as Form A
hygroscopicity (in words) ([4]; 0-85% RH): non-hygroscopic
Change In Mass (%)-ref, Desorption ([4]; Target RH 0.0 %): −0.023%
Change In Mass (%)-ref, Sorption ([4]; Target RH 0.0 %): 0.000%
Change In Mass (%)-ref, Desorption ([4]; Target RH 5.0 %): 0.012%
Change In Mass (%)-ref, Hysteresis ([4]; Target RH 5.0 %): −0.006%
Change In Mass (%)-ref, Sorption ([4]; Target RH 5.0 %): 0.019%
Change In Mass (%)-ref, Desorption ([4]; Target RH 15.0 %): 0.065%
Change In Mass (%)-ref, Hysteresis ([4]; Target RH 15.0 %): −0.008%
Change In Mass (%)-ref, Sorption ([4]; Target RH 15.0 %): 0.073%
Change In Mass (%)-ref, Desorption ([4]; Target RH 25.0 %): 0.119%
Change In Mass (%)-ref, Hysteresis ([4]; Target RH 25.0 %): −0.003%
Change In Mass (%)-ref, Sorption ([4]; Target RH 25.0 %): 0.121%
Change In Mass (%)-ref, Desorption ([4]; Target RH 35.0 %): 0.167%
Change In Mass (%)-ref, Hysteresis ([4]; Target RH 35.0 %): 0.008%
Change In Mass (%)-ref, Sorption ([4]; Target RH 35.0 %): 0.159%
Change In Mass (%)-ref, Desorption ([4]; Target RH 45.0 %): 0.218%
Change In Mass (%)-ref, Hysteresis ([4]; Target RH 45.0 %): 0.013%
Change In Mass (%)-ref, Sorption ([4]; Target RH 45.0 %): 0.205%
Change In Mass (%)-ref, Desorption ([4]; Target RH 55.0 %): 0.279%
Change In Mass (%)-ref, Hysteresis ([4]; Target RH 55.0 %): 0.019%
Change In Mass (%)-ref, Sorption ([4]; Target RH 55.0 %): 0.259%
Change In Mass (%)-ref, Desorption ([4]; Target RH 65.0 %): 0.356%
Change In Mass (%)-ref, Hysteresis ([4]; Target RH 65.0 %): 0.038%
Change In Mass (%)-ref, Sorption ([4]; Target RH 65.0 %): 0.318%
Change In Mass (%)-ref, Desorption ([4]; Target RH 85.0 %): 0.604%
Change In Mass (%)-ref, Hysteresis ([4]; Target RH 85.0 %): 0.102%
Change In Mass (%)-ref, Sorption ([4]; Target RH 85.0 %): 0.502%
Change In Mass (%)-ref, Desorption ([4]; Target RH 95.0 %): 4.054%
Change In Mass (%)-ref, Hysteresis ([4]; Target RH 95.0 %): 0.764%
Change In Mass (%)-ref, Sorption ([4]; Target RH 95.0 %): 3.289%
Change In Mass (%)-ref, Desorption ([4]; Target RH 98.0 %): 4.006%
Change In Mass (%)-ref, Sorption ([4]; Target RH 98.0 %): 4.006%
Change In Mass (%)-ref, Desorption ([4]; Target RH […]): 0.457%
Change In Mass (%)-ref, Hysteresis ([4]; Target RH […]): 0.056%
Change In Mass (%)-ref, Sorption ([4]; Target RH […]): 0.401%
weight gain [4]: 4.0%
weight gain with increasing RH [4]: 0.5 wt %

Nc1nc(/C(=C/CC(=O)O)C(=O)N[C@@H]2C(=O)N3C(C(=O)O)=CCS[C@H]23)cs1 [Ceftibuten dihydrate, reference compound]
degradation (in words) [1]: temperature dependent degradation
HPLC purity (% peak area) [1, 6]: 98.6%
HPLC purity (% peak area) [1, 7]: 98.6%
HPLC purity (% peak area) [1, 8]: 98.6%
HPLC purity (% peak area) [1, 9]: 98.4%
HPLC purity (% peak area) [1, 10]: 98.6%
HPLC purity (% peak area) [1, 11]: 98.4%
HPLC purity (% peak area) [1, 12]: 96.7%
HPLC purity (% peak area) [1, 13]: 92.8%
HPLC purity (% peak area) [1, 14]: 98.4%
HPLC purity (% peak area) [1, 15]: 98.6%
HPLC purity (% peak area) [1, 16]: 98.3%
HPLC purity (% peak area) [1, 17]: 96.8%
HPLC purity (% peak area) [1, 18]: 97.5%
HPLC purity (% peak area) [1, 19]: 94.8%
HPLC purity (% peak area) [1, 20]: 93.7%
HPLC Purity (Peak Area %) Ceftibuten ([2]; 2 weeks): 99.2%
HPLC Purity (Peak Area %) Ceftibuten ([2]; 5 weeks): 94.8%

Nc1nc(/C(=C/CC(=O)O)C(=O)N[C@@H]2C(=O)N3C(C(=O)O)=CCS[C@H]23)cs1 [Ceftibuten, reference compound]
chemical stability in the presence of the excipients (in words) [2]: comparable to the stability for the drug substance controls
bioavailability [5]: ~20%
